Measurements reported in EP0428132A1, “Pradimicin derivatives” (Bristol-Myers Squibb Company, priority 1989, dated 1991).
Values after ≈ are worked out from the molar mass of the structure shown. Values joined by “and” are separate entries in the source; they are usually repeats but may differ in a detail not shown here. Equal entries are not always repeated.

Tests used:
[1] = tested on: Candida albicans A9540; experiment: Intravenous Candida albicans infection mouse model, Table 2 part A; type: in vivo; conditions: drug administered once just after infection, 20 days after fungal challenge, method of Litchfield and Wilcoxon, male ICR mice
Description: (§1) Several compounds were also evaluated in an intravenous Candida albicans […] infection mouse model. The test organism was suspended in saline approximately 10 times the median lethal dose of the fungus (10⁶ cells/mouse) were used to infect intravenously male ICR mice weighing 20 to 24 g. Groups of five mice at each dose level were given the test compounds intravenously or intramuscularly. The 50% protective dose (PD₅₀) was calculated from survival rates recorded 20 or 21 days after the fungal challenge. Control animals died between 7 to 15 days.

[2] = tested on: Petriellidium boydii IFO8078; experiment: In vitro antifungal activity, serial agar dilution method (Table 1); type: cell-based; conditions: Scedosporium boydii, IFO8078; Sabouraud dextrose agar (pH 7.0); 28°C for 40 hours
Description: (§2) The inoculum size was adjusted to 10⁶ cells/ml, and a volume of approximately 0.003 ml of fungal suspension was applied to the surface of the antibiotic containing agar plates with a multiinoculator. After incubation, the lowest concentration of antibiotic causing virtually complete inhibition of fungal growth was determined as the minimum inhibitory concentration (MIC). Table 1. [table]

[3] = tested on: Trichophyton mentagrophytes D155; experiment: as above; type: cell-based; conditions: Trichophyton mentagrophytes, D155; Sabouraud dextrose agar (pH 7.0); 28°C for 40 hours
Description: as §2

[4] = tested on: Candida albicans IAM4888; experiment: as above; type: cell-based; conditions: Candida albicans, IAM4888; Sabouraud dextrose agar (pH 7.0); 28°C for 40 hours
Description: as §2

[5] = tested on: Cryptococcus neoformans D49; experiment: as above; type: cell-based; conditions: Cryptococcus neoformans, D49; Sabouraud dextrose agar (pH 7.0); 28°C for 40 hours; read-out: MIC, Cryptococcus neoformans D49
Description: as §2

[6] = tested on: Trichophyton mentagrophytes #4329; experiment: as above; type: cell-based; conditions: Trichophyton mentagrophytes; Sabouraud dextrose agar (pH 7.0); 28°C for 40 hours
Description: as §2

[7] = tested on: Blastomyces dermatidis D40; experiment: as above; type: cell-based; conditions: Blastomyces, D40; Sabouraud dextrose agar (pH 7.0); 28°C for 40 hours; read-out: MIC, Blastomyces dermatidis D40
Description: as §2

[8] = tested on: Cryptococcus neoformans IAM4514; experiment: as above; type: cell-based; conditions: Cryptococcus neoformans, IAM4514; Sabouraud dextrose agar (pH 7.0); 28°C for 40 hours
Description: as §2

[9] = tested on: Sprotricosis schenckii IFO8158; experiment: as above; type: cell-based; conditions: Sabouraud dextrose agar (pH 7.0); 28°C for 40 hours; read-out: MIC, Sprotricosis schenckii IFO8158
Description: as §2

[10] = tested on: Candida albicans A9540; experiment: as above; type: cell-based; conditions: Candida albicans, A9540; Sabouraud dextrose agar (pH 7.0); 28°C for 40 hours
Description: as §2

[11] = tested on: Aspergillus fumigatus IAM2034; experiment: as above; type: cell-based; conditions: Aspergillus fumigatus, IAM2034; Sabouraud dextrose agar (pH 7.0); 28°C for 40 hours
Description: as §2

[12] = tested on: Mucor spinosus IFO5317; experiment: as above; type: cell-based; conditions: Sabouraud dextrose agar (pH 7.0), 28°C for 40 hours
Description: as §2

[13] = tested on: Fusarium moniliforme A2284; experiment: as above; type: cell-based; conditions: Fusarium verticillioides, A2284; Sabouraud dextrose agar (pH 7.0); 28°C for 40 hours
Description: as §2

[14] = tested on: Aspergillus fumigatus IAM2530; experiment: as above; type: cell-based; conditions: Aspergillus fumigatus, IAM2530; Sabouraud dextrose agar (pH 7.0); 28°C for 40 hours
Description: as §2

[15] = tested on: Microsporum gypseum WW1107; experiment: In vitro antifungal activity, serial agar dilution method (Table 1a); type: cell-based; conditions: Nannizzia gypsea, YM agar (pH 7.0, Difco), 30°C for 2 days (yeast) or 4 days (filamentous fungi), read-out: MICs, Microsporum gypseum WW1107
Description: as §2, with “(MIC).” for “(MIC). Table 1. [table]”

[16] = tested on: Trichophyton mentagrophytes A26771; experiment: as above; type: cell-based; conditions: A26771, YM agar (pH 7.0, Difco), 30°C for 2 days (yeast) or 4 days (filamentous fungi), read-out: MICs, Trichophyton mentagrophytes A26771
Description: as §2, with “(MIC).” for “(MIC). Table 1. [table]”

[17] = tested on: Candida albicans A9540; experiment: as above; type: cell-based; conditions: A9540, YM agar (pH 7.0, Difco), 30°C for 2 days (yeast) or 4 days (filamentous fungi), read-out: MICs, Candida albicans A9540
Description: as §2, with “(MIC).” for “(MIC). Table 1. [table]”

[18] = tested on: Candida tropicalis A25812; experiment: as above; type: cell-based; conditions: A25812, YM agar (pH 7.0, Difco), 30°C for 2 days (yeast) or 4 days (filamentous fungi), read-out: MICs, Candida tropicalis A25812
Description: as §2, with “(MIC).” for “(MIC). Table 1. [table]”

[19] = tested on: Candida albicans A25578; experiment: as above; type: cell-based; conditions: A25578, YM agar (pH 7.0, Difco), 30°C for 2 days (yeast) or 4 days (filamentous fungi), read-out: MICs, Candida albicans A25578
Description: as §2, with “(MIC).” for “(MIC). Table 1. [table]”

[20] = Water solubility, protocol I (PBS, HPLC); type: physicochemical; conditions: Method I: PBS without CaCl₂ and MgCl₂.6H₂O
Description: The supernatant (2 µL) was analyzed by HPLC using the conditions specified for each compound in the Experimental Section. […] When not soluble, an additional amount of PBS (x µL) was added, sonicated, and centrifuged. When visibly soluble, the solution (2 µL) was injected to HPLC and the peak area was used for the known concentration of the sample.

[21] = physchem
Description: The sample (3 ∼ 3.5 mg) was suspended in 1 ml of PBS(-) or PBS(+), sonicated at 30°C for 10 minutes, and allowed to stand at room temperature for 2 hours. The resulting solution or suspension was centrifuged at 12,000 rpm for 10 minutes. The supernatant (pH 6.7 ∼ 7.2) was diluted (5 x or 50 x) with 0.01N NaOH (pH ca. 11.5) and its UV absorption at 500 nm was measured. The solubility was assessed by the absorption coefficient value with reference to the standard. […] The zwitterionic form sample was used for the solubility test as it is. The hydrochloride salt sample (3 mg) was dissolved in 3 ml of distilled water and neutralized with 0.01N NaOH, and then the solution was lyophilized to give a test sample.
Dulbecco's phosphate buffered saline (PBS) solution was used. Preparation of PBS(-) solution: One PBS(-) tablet (Flow Laboratories, Cat. No. 28-103-05) was dissolved in 100 ml distilled water, and the solution was autoclaved for 10 minutes at 115°C. This solution contains 0.2 g/L of KCl, 0.2 g/L of KH₂PO₄, 8 g/L of NaCl, and 1.15 g/L of Na₂HPO₄. Preparation of PBS(+) solution: One PBS(-) tablet was dissolved in 80 ml distilled water; 10 mg of CaCl₂ was dissolved in 10 ml distilled water; 10 mg of MgCl₂, 6H₂O was dissolved in 10 ml distilled water. These solutions were separately autoclaved, as described above, and mixed when cooled.

[22] = tested on: Candida albicans A9540; experiment: Intravenous Candida albicans infection mouse model, Table 2 part B; type: in vivo, mice; conditions: at 1 and 3.5 hrs after infection and twice on the following day, 21 days after fungal challenge, method of Spearman-Karber, male ICR mice
Description: as §1, with “Control animals died between 7 to 15 days.” left out

CN[C@@H]1[C@H](O[C@@H]2OC[C@@H](O)[C@H](O)[C@H]2O)[C@@H](O)[C@H](O[C@H]2c3cc(C)c(C(=O)N[C@H](C)C(=O)O)c(O)c3-c3c(cc4c(c3O)C(=O)c3cc(OC)cc(O)c3C4=O)[C@@H]2O)O[C@@H]1C [Pradimicin A, reference compound]
PD₅₀ [1]: 11 mg/kg and 7.9 mg/kg | MIC [2]: 12.5 µg/mL (≈ 14.9 µM) | MIC [3]: 6.3 µg/mL (≈ 7.49 µM) | MIC [4]: 6.3 µg/mL (≈ 7.49 µM) | MIC [5]: 0.8 µg/mL (≈ 0.951 µM) | MIC [6]: 3.1 µg/mL (≈ 3.69 µM) | MIC [7]: 3.1 µg/mL (≈ 3.69 µM) | MIC [8]: 0.8 µg/mL (≈ 0.951 µM) | MIC [9]: 1.6 µg/mL (≈ 1.9 µM) | MIC [10]: 50 µg/mL (≈ 59.5 µM) | MIC [11]: 3.1 µg/mL (≈ 3.69 µM) | MIC ([12]; Mucor spinosus, IFO5317): > 100 µg/mL | Partial Inhibition, Mucor spinosus IFO5317 ([12]; value in parentheses = Partial Inhibition): 12.5 µg/mL | MIC [13]: 3.1 µg/mL (≈ 3.69 µM) | MIC [14]: 3.1 µg/mL (≈ 3.69 µM) | MIC [15]: 12.5 µg/mL (≈ 14.9 µM) | MIC [16]: 6.3 µg/mL (≈ 7.49 µM) | MIC [17]: > 50 µg/mL | MIC [18]: > 50 µg/mL | MIC [19]: 3.2 µg/mL (≈ 3.81 µM) | solubility [20]: 17 µg/mL (≈ 20.2 µM) | solubility at 2 h ([21]; Method II (+): PBS(+)): 81 µg/mL (≈ 96.3 µM) | solubility at 2 h ([21]; Method II (-): PBS(-)): 17 µg/mL (≈ 20.2 µM) | PD₅₀ ([22]; Part B: route IM): 8.2 mg/kg | PD₅₀ ([22]; Part B: route IV): 30 mg/kg
